Results taken from patent US10906977B2, “Enhancing the therapeutic activity of immune checkpoint inhibitor” (Maine Medical Center Research Institute, priority 2016, dated 2021).

Experiments:
[1] = test system: chick chorioallantoic membrane (CAM); assay: Chick CAM angiogenesis induced by soluble RGD collagen peptides; format: in vivo
Experimental: (§1) The chick chorioallantoic membrane (CAM) assays were carried out with some modifications (19). For all experiments CAMs of 10-day-old chick embryos obtained from Charles River (North Franklin, Conn.) were separated from the shell membrane. Filter discs either non-treated (inflammation assays) pretreated (angiogenesis assays) with cortisone acetate (3.0 mg/ml) containing RPMI only or FGF-2 (40 ng). CAMs were either non-treated or treated topically with Mab XL313, XL166 or a non-specific control antibody (10 μg/embryo every 24 h for three consecutive treatments). […] At the end of the incubation period the embryos were sacrificed and the CAM tissues were analyzed. Angiogenesis was quantified by counting the number of angiogenic branching blood vessels within the area of the filter disc. The angiogenic index was determined by subtracting the mean number of blood vessel branch points from untreated CAMs from each experimental condition. Eight to twelve embryos were used per condition and experiments were repeated at least three times.

[2] = test system: chick chorioallantoic membrane (CAM); assay: Chick CAM inflammation induced by soluble RGD collagen peptides; format: in vivo; conditions: FIG. 5D
Experimental: as §1

P38MAPK [3] = assay: Phosphorylated P38MAPK in HUVECs attached to collagen peptides (Western blot); format: cell-based, human; conditions: cells attached to peptide; FIG. 6D
Experimental: (§2) Endothelial cells (HUVECs or HRMVECs) were incubated in serum free media with 1 mM MgCl2, 0.2 mM MnCl2 in the presence of a Src inhibitor, PP2, (10 μM) a P38MAPK inhibitor, SB202190 (10 μM) or vehicle only (DMSO) for 10 min at 37° C. Treated cells were then seeded on to immobilized P-1 and P-2 and lysates were collected at 15 min.
(§3) Whole cell and CAM tissue lysates were collected in RIPA buffer supplemented with 1× protease inhibitor and 1× phosphatase inhibitor and were run on polyacrylamide gels using denaturing conditions. Prior to loading the gels, 6× sample buffer was added to each of the lysates (final concentration 1×) and boiled for five minutes. Twenty to 50 μg of total protein were loaded into each lane. […] Gels were run at 60 volts (v) until the dye front passed through the stacking gel, and then the voltage was increased to 100V for the remainder of the separation. Precision Plus protein standards (Bio-Rad) were used to visualize migration. Protein was transferred to nitrocellulose membranes using a wet tank system and blocked for 1 h using 10% non-fat dried milk in tris-buffered saline with 0.01% Tween-20 (TBS-T). […] Membranes were washed 3 times in TBS-T for five minutes. Blots were then incubated with HRP conjugated secondary antibodies (1:15000) in 1% non-fat milk in TBS-T for 1 h. […] Western blot bands were quantified using Image J software based on pixel intensity.

P38MAPK [4] = assay: Phosphorylated P38MAPK in HRMVEC attached to collagen peptides (Western blot); format: cell-based, human; conditions: cells attached to peptide; FIG. 6E
Experimental: as §2, §3

Fak = Fak phosphorylation in endothelial cells attached to collagen peptides; format: cell-based, human; conditions: serum free conditions
Experimental: Whole cell and CAM tissue lysates were collected in RIPA buffer supplemented with 1× protease inhibitor and 1× phosphatase inhibitor and were run on polyacrylamide gels using denaturing conditions. Prior to loading the gels, 6× sample buffer was added to each of the lysates (final concentration 1×) and boiled for five minutes. Twenty to 50 μg of total protein were loaded into each lane. For detection of proteins larger than 50 kD, 10% gels were used; for proteins smaller than 50 kD 15% gels were used. Gels were run at 60 volts (v) until the dye front passed through the stacking gel, and then the voltage was increased to 100V for the remainder of the separation. Precision Plus protein standards (Bio-Rad) were used to visualize migration. Protein was transferred to nitrocellulose membranes using a wet tank system and blocked for 1 h using 10% non-fat dried milk in tris-buffered saline with 0.01% Tween-20 (TBS-T). […] Western blot bands were quantified using Image J software based on pixel intensity.

Src = Src phosphorylation in endothelial cells attached to collagen peptides (Western blot); format: cell-based, human; conditions: FIG. 7D
Experimental: (§4) Whole cell and CAM tissue lysates were collected in RIPA buffer supplemented with 1× protease inhibitor and 1× phosphatase inhibitor and were run on polyacrylamide gels using denaturing conditions. Prior to loading the gels, 6× sample buffer was added to each of the lysates (final concentration 1×) and boiled for five minutes. Twenty to 50 μg of total protein were loaded into each lane. […] Gels were run at 60 volts (v) until the dye front passed through the stacking gel, and then the voltage was increased to 100V for the remainder of the separation. Precision Plus protein standards (Bio-Rad) were used to visualize migration. Protein was transferred to nitrocellulose membranes using a wet tank system and blocked for 1 h using 10% non-fat dried milk in tris-buffered saline with 0.01% Tween-20 (TBS-T). […] Membranes were washed 3 times in TBS-T for five minutes. Blots were then incubated with HRP conjugated secondary antibodies (1:15000) in 1% non-fat milk in TBS-T for 1 h. Membranes were washed a second time as indicated above and exposed to chemiluminecent substrate for three minutes prior to exposure to autoradiography film in a dark room. Western blot bands were quantified using Image J software based on pixel intensity.

[5] = test system: endothelial cells (HUVECs); assay: Actin stress fiber formation in endothelial cells attached to collagen peptides; format: cell-based, human; conditions: FIG. 7G
Experimental: CAMs examined for accumulation of granulation tissue were harvested, fixed in 4% PFA and paraffin embedded and sectioned (4 μm) and stained with Giemsa. CAM tissues analyzed via immunofluorescence were harvested, embedded with OCT, snap frozen and sectioned ([…]). Frozen sections were fixed in 50% methanol/50% acetone, air dried and blocked with 2.5% BSA for 1 h at 37° C. For expression of the XL313 and XL166 epitopes as well as monocyte/macrophages, FGF-2 stimulated CAM tissues were stained with Mabs XL313, XL166 (50 μg/ml) or KUL1 (1:250) and then incubated with Alexa-488 labeled secondary antibodies (1:2000 dilution). Co-staining of monocytes/macrophages and the Mab XL313 reactive epitope in FGF-2 stimulated CAMs was performed by sequential staining by first probing with KUL1 (1:250) and then with a biotinconjugated Mab XL313 (50 μg/ml), and with secondary antibodies Alexa-488 and streptavidin Alexa-594 (1:2000) respectively. Using a similar strategy, sections of RGD peptide-treated CAM tissues were analyzed for phosphorylated-P38MAPK in angiogenic vessels by co-incubation of anti-phospho-P38MAPK (1:50) and anti-vWf (1:500) antibodies. […] Cells were allowed to attach for 15, 30, or 60 min in the absence of serum and were fixed with 4% PFA. Fixed cells were washed and blocked with 2.5% BSA and stained with anti-YAP (1:200) and phalloidin (1:500). […]

YAP = assay: Nuclear YAP in endothelial cells attached to collagen peptides; format: cell-based, human
Experimental: as §4

## CQGPRGDKGEC [Mab P-2]
[1]; FIG. 5B
  dose dependent induction of CAM angiogenesis: dose dependently enhanced angiogenesis
  dose of maximum induction of angiogenesis: 100 ng/CAM
[1]; soluble peptide, FIG. 5C
  induction of CAM angiogenesis as compared to no treatment: induced angiogenesis
[2]
  CAM inflammation following stimulation with peptide: induced inflammation to nearly that of FGF-2 stimulation
P38MAPK [3]
  phosphorylation of P38MAPK in HUVECs, as compared to P-1: enhanced phosphorylation of P38MAPK
P38MAPK [4]
  phosphorylation of P38MAPK in HRMVEC, as compared to P-1: enhanced phosphorylation of P38MAPK
Fak
  Fak phosphorylation following ligation of peptide: Minimal Fak phosphorylation
Src
  enhancement of Src phosphorylation as compared to P-1: ~2 fold
[5]
  actin stress fiber formation as compared to P-1: accelerated actin stress fiber formation
YAP; by 15 minutes, FIG. 8A
  nuclear localized YAP (staining) as compared to P-1: enhanced level of nuclear localized YAP
YAP; cells attached to peptide, FIG. 8B
  increase of nuclear YAP as compared to P-1 (Western blot): approximately 2 fold
